Data reported in patent US20100216751A1 (priority 2007, published 2010).
Values joined by “and” are separate entries in the source; they are usually repeats but may differ in a detail not shown here. Equal entries are not always repeated.

Columns and labels:
[1] = Pharmacokinetic evaluation of bevirimat HPβCD formulation, intravenous, male Cynomolgus monkeys
Experimental: Six male Cynomolgus monkeys having an initial body weight of about 3.5 to about 4.5 kg are allowed 7 days to acclimate to their individual housing units. Monkeys are supplied with water and a commercial diet ad libitum prior to the study initiation. Food is withheld from the monkeys for a minimum of twelve hours before the study and during the study until four hours postdose when food is returned. Water is supplied ad libitum.
Test formulations are administered to the monkeys at time 0 on appropriate days. Test formulations will be dosed orally via oral gavage or intravenously.
Samples are drawn at the frequencies indicated below. Each blood sample (0.5 mL) is collected from the monkey's saphenous vein via a butterfly catheter and placed into a chilled polypropylene tube containing sodium heparin as the anticoagulant. Blood samples are centrifuged at a temperature of 4° C. at a speed of 3,000 rpm for 15 minutes. All samples are maintained chilled throughout processing. Plasma is collected after centrifugation, pipetted into a 2-mL polypropylene microtube, and frozen on dry-ice pending analytical evaluation.

[2] = Solubility of bevirimat and bevirimat dimeglumine in single vehicles; details: in 100% water, 100% saline, 100% dextrose, 100% PEG 400, and 25% Poloxamer 188
[3] = 2.5 mg FAE/mL in 10% HPβCD+3% Mannitol in water, 10 mg FAE/monkey intravenous injection, monkeys 115,116,120,AVG
[4] = male, cynomolgus monkey, plasma, iv, 10 mg

Question: Which results are given for `C=C(C)[C@@H]1CC[C@]2(C(=O)O)CC[C@]3(C)[C@H](CC[C@@H]4[C@@]5(C)CC[C@H](OC(=O)CC(C)(C)C(=O)O)C(C)(C)[C@@H]5CC[C@]43C)[C@@H]12` [Bevirimat, 3-O-(3′,3′-dimethylsuccinyl)betulinic acid]?
Answer: AUCall [1, 3]: 81549 ng·h/mL and 84743 ng·h/mL; C0 [1, 3]: 54673 ng/mL and 39400 ng/mL; CL [1, 3]: 0.383 mL/min/kg and 0.533 mL/min/kg and 0.417 mL/min/kg; Dnzed AUCall [1, 3]: 46879 ng·h/mL/mg/kg and 41590 ng·h/mL/mg/kg and 31505 ng·h/mL/mg/kg and 39991 ng·h/mL/mg/kg; t1/2 [1, 3]: 24.7 h and 15.5 h and 18.3 h; Plasma Concentration ([1]; 0.033 hr, 2.5 mg FAE/mL in 10% HPβCD+3% Mannitol in water, 10 mg FAE/monkey intravenous injection, monkeys 115,116,120,AVG): 39400 ng/mL; Plasma Concentration ([1]; 0.25 hr, 2.5 mg FAE/mL in 10% HPβCD+3% Mannitol in water, 10 mg FAE/monkey intravenous injection, monkeys 115,116,120,AVG): 41600 ng/mL and 23100 ng/mL and 32333 ng/mL; Plasma Concentration ([1]; 0.50 hr, 2.5 mg FAE/mL in 10% HPβCD+3% Mannitol in water, 10 mg FAE/monkey intravenous injection, monkeys 115,116,120,AVG): 19800 ng/mL and 14800 ng/mL and 19967 ng/mL; Plasma Concentration ([1]; 1.0 hr, 2.5 mg FAE/mL in 10% HPβCD+3% Mannitol in water, 10 mg FAE/monkey intravenous injection, monkeys 115,116,120,AVG): 20200 ng/mL and 11700 ng/mL and 18233 ng/mL; Plasma Concentration ([1]; 12 hr, 2.5 mg FAE/mL in 10% HPβCD+3% Mannitol in water, 10 mg FAE/monkey intravenous injection, monkeys 115,116,120,AVG): 384 ng/mL and 404 ng/mL and 517 ng/mL; Plasma Concentration ([1]; 24 hr, 2.5 mg FAE/mL in 10% HPβCD+3% Mannitol in water, 10 mg FAE/monkey intravenous injection, monkeys 115,116,120,AVG): 367 ng/mL and 245 ng/mL and 320 ng/mL; Plasma Concentration ([1]; 48 hr, 2.5 mg FAE/mL in 10% HPβCD+3% Mannitol in water, 10 mg FAE/monkey intravenous injection, monkeys 115,116,120,AVG): 148 ng/mL and 81.0 ng/mL and 121 ng/mL; Plasma Concentration ([1]; 72 hr, 2.5 mg FAE/mL in 10% HPβCD+3% Mannitol in water, 10 mg FAE/monkey intravenous injection, monkeys 115,116,120,AVG, BLOQ=below 50 ng/mL): BLOQ; concentration at 0.033 hr ([1]; male, cynomolgus monkey, in vivo, iv, 10 mg FAE/monkey, Plasma concentration, 0.033 hr, 2.5 mg FAE/mL in 10% HPβCD+3% Mannitol in water, 10 mg FAE/monkey intravenous injection, monkeys 115,116,120,AVG): 50600 ng/mL; concentration at 0.25 hr ([1]; male, cynomolgus monkey, in vivo, iv, 10 mg FAE/monkey, Plasma concentration, 0.25 hr, 2.5 mg FAE/mL in 10% HPβCD+3% Mannitol in water, 10 mg FAE/monkey intravenous injection, monkeys 115,116,120,AVG): 32300 ng/mL; concentration at 0.5 hr ([1]; male, cynomolgus monkey, in vivo, iv, 10 mg FAE/monkey, Plasma concentration, 0.50 hr, 2.5 mg FAE/mL in 10% HPβCD+3% Mannitol in water, 10 mg FAE/monkey intravenous injection, monkeys 115,116,120,AVG): 25300 ng/mL; concentration at 1 hr ([1]; male, cynomolgus monkey, in vivo, iv, 10 mg FAE/monkey, Plasma concentration, 1.0 hr, 2.5 mg FAE/mL in 10% HPβCD+3% Mannitol in water, 10 mg FAE/monkey intravenous injection, monkeys 115,116,120,AVG): 22800 ng/mL; concentration at 12 hr ([1]; male, cynomolgus monkey, in vivo, iv, 10 mg FAE/monkey, Plasma concentration, 12 hr, 2.5 mg FAE/mL in 10% HPβCD+3% Mannitol in water, 10 mg FAE/monkey intravenous injection, monkeys 115,116,120,AVG): 762 ng/mL; concentration at 24 hr ([1]; male, cynomolgus monkey, in vivo, iv, 10 mg FAE/monkey, Plasma concentration, 24 hr, 2.5 mg FAE/mL in 10% HPβCD+3% Mannitol in water, 10 mg FAE/monkey intravenous injection, monkeys 115,116,120,AVG): 347 ng/mL; concentration at 48 hr ([1]; male, cynomolgus monkey, in vivo, iv, 10 mg FAE/monkey, Plasma concentration, 48 hr, 2.5 mg FAE/mL in 10% HPβCD+3% Mannitol in water, 10 mg FAE/monkey intravenous injection, monkeys 115,116,120,AVG): 134 ng/mL; AUC ([1]; male, cynomolgus monkey, in vivo, iv, 10 mg, AUCall, 2.5 mg FAE/mL in 10% HPβCD+3% Mannitol in water, 10 mg FAE/monkey intravenous injection, monkeys 115,116,120,AVG): 114000 ng·h/mL; C0 ([1]; male, cynomolgus monkey, in vivo, iv, 10 mg, C0, 2.5 mg FAE/mL in 10% HPβCD+3% Mannitol in water, 10 mg FAE/monkey intravenous injection, monkeys 115,116,120,AVG): 54200 ng/mL; half-life ([1]; male, cynomolgus monkey, in vivo, iv, 10 mg, t1/2, 2.5 mg FAE/mL in 10% HPβCD+3% Mannitol in water, 10 mg FAE/monkey intravenous injection, monkeys 115,116,120,AVG): 14.7 h; AUC [1, 4]: 58300 ng·h/mL; C0 [1, 4]: 49400 ng/mL; Tmax [1, 4]: 0 h; clearance ([1]; male, cynomolgus monkey, plasma, iv, 10 mg, CL, 2.5 mg FAE/mL in 10% HPβCD+3% Mannitol in water, 10 mg FAE/monkey intravenous injection, monkeys 115,116,120,AVG): 0.333 mL/min/kg; solubility (in words) [2]: poorly soluble
